Converted amounts (≈) assume the structure as drawn. Where a SMILES comes first, the peptide text is derived from it. A value given as a limit tells only on which side of the number the result lay.

Format in all cases: cell-based
Test [1] deals with S. epidermidis cra4029 (SE 02). An excerpt:
(§1) The experimental scheme reported in Figure 6 helped to simplify and optimize the in vitro testing of the antibacterial activity of the different AMPs. The initial transparent microtiter plate for the determination of the minimum inhibitory concentration (MIC) by optical density (OD) measurement was conveniently used as a starting point not only for the alterative determination of the MIC by luminescence but also for the minimum bactericidal concentration (MBC) and for the minimum biofilm inhibitory concentration (MBIC), as explained below. For every test peptide, at least three independent experiments were performed on each bacterial strain per test condition (100% MHB and 20% MHB). The sole exception to this rule was when MIC values were on rare occasions found to be greater than 500 µg/mL. Under these circumstances, two consecutive experiments were performed to confirm the results. In this case, the antibacterial activity was considered insignificant and the third experiment was generally considered unnecessary.
(§2) The antibacterial properties of the test AMPs were assayed under two distinct conditions of bacterial culture: (i) with bacteria cultured in undiluted Mueller–Hinton II Broth (MHB II) and (ii) with bacteria cultured in diluted MHB II as earlier described in Campoccia et al.. Briefly, a few colonies of each bacterial strain, taken from overnight cultures on Mueller–Hinton Agar plates (MHA, PO50007A, ThermoScientific, Thermo Fisher Scientific, Segrate, Italy), were resuspended in Mueller–Hinton II Broth (MHB II, 24107, Liofilchem, Roseto degli Abruzzi, Italy), either undiluted or at a 20% dilution in deionized water. The concentration of bacteria was adjusted to approximately 10^8 CFU/mL, as estimated by optical density reading at 625 nm, using a Hewlett Packard G1103A spectrophotometer (Waldbronn, Germany). The bacterial suspension was further diluted 1:100 in 100% or 20% MHB II.
(§3) Serial 1:2 dilutions of all the test peptides were prepared in sterile deionized water starting from a stock solution of 1 mg/mL. Microtiter plates (96-Well CytoOne® Plate, CC7672-7596, Starlab S.r.l., Milano, Italy) were prepared by adding a volume of 100 µL of inoculum to 100 µL of treatment. Each AMP dilution was assayed in triplicate; each microplate included triplicate wells for the blank (100 µL of sterile distilled water and 100 µL of sterile MHB II), and 3 to 6 wells for reference control of 100% growth (100 µL of sterile deionized water and 100 µL of MHB II inoculated with the bacterium). Positive controls were performed in triplicate wells with 100 µL of a 10 mg/mL gentamicin solution (G1272, Sigma Aldrich, Milan, Italy) and with 100 µL of a solution containing 10,000 units/mL of penicillin and 10,000 µg/mL of streptomycin (penicillin–streptomycin, 15140-122, Life Technologies, Monza, Italy).
(§4) The wells of the microplate, initially used for the determination of the MIC, were rinsed twice with 220 µL of phosphate-buffered solution (PBS) to remove loosely attached and planktonic bacteria. A total of 100 µL of fresh PBS and 100 µL of Bac-Titer Glo solution (G8231, Promega Italia S.r.l., Milan, Italy) were added to each well. After a 10 min incubation, a volume of 100 µL was transferred to a new microplate for luminescence determination as described above. As a general rule, the MBIC value was identified as the concentration at which a reduction of at least a log in the metabolic activity was observed.

Test [2] deals with E. faecalis cra4024 (EF 01).
Text: as §1, §2, §3, §4

Test [3] relates to P. aeruginosa cra3840 (PA 02). The note with it: for MBIC: cra3840 (PA 02, 24 h).
Text: as §1, §2, §3, §4

In test [4] the test system is S. aureus ATCC 25923 (SA 00). The note with it: ATCC 25923, 24 h.
Text: as §1, §2, §3, §4

In test [5] the test system is S. aureus cra2198 (SA 02). The note with it: cra2198 (SA 02, 24 h).
Text: as §1, §2, §3, §4

Test [6] has as its system S. epidermidis cra4034 (SE 01). The note with it: cra4034 (SE 01, 24 h).
Text: as §1, §2, §3, §4

Test [7] deals with S. aureus cra4030 (SA 01). The note with it: for MBIC: cra4030 (SA 01, 24 h).
Text: as §1, §2, §3, §4

The subject of test [8] is E. coli cra4038 (EC). The following applies: for LR, Log10 reduction in bacterial metabolism for a given MBIC: cra4038 (EC).
Text: as §1, §2, §3, §4

For test [9], the system named is S. epidermidis cra4029 (SE 02).
Text: as §1, §2, §3
(§5) After a 1-day incubation at 37 °C, the MIC was determined by two distinct methods: (1) optical density measurement and (2) bioluminescence reading. In the first case, the optical density of the microtiter plates was read directly at a wavelength of 600 nm and the MIC was estimated from the curves obtained by plotting the OD measurements. For the bioluminescence reading, after gentle resuspension, 100 µL of each treated culture was transferred to a new 96-well non-treated plate (236105/237105, Life Technologies, Monza, Italy) and the metabolic activity was determined by the kit Bac-Titer Glo Microbial Cell Viability Assay (G8231, Promega Italia S.r.l, Milan, Italy). Optical density and bioluminescence were read by a Modulus II multifunction plate reader (Turner BioSystems, Sunnyvale, CA, USA) or, alternatively, by an Infinite M Plex (Tecan Group Ltd., Männedorf, Switzerland). As earlier described in [24], in the case of luminescence, the MIC was identified from the curves of growth inhibition as the first concentration leading to a 1-log reduction in bacterial growth (i.e., 90% growth inhibition). […]
The source holds these as a separate data set.

In test [10] the test system is E. faecalis cra4024 (EF 01).
Text: as §1, §2, §3, §5
This is another data set of the same source.

The test system of test [11] is E. faecalis cra4033 (EF 02).
Text: as §1, §2, §3, §5

The test system of test [12] is S. aureus cra2198 (SA 02).
Text: as §1, §2, §3, §5

Test [13] has as its system S. epidermidis cra4029 (SE 02).
Text: as §1
as §2, with “II. […]” for “II.”
(§6) For assessing the MBC, 10 μL of bacterial suspensions was taken from wells corresponding to MIC, 2× MIC, and 4× MIC and then plated on MHA plates. […] The MBC was determined as the lowest dilution causing absence of bacterial colonies growth on the plate.
(§7) In order to assess the extent of the interference of the culture medium composition with the antibacterial activity of the three peptides, a “Rate of Abatement” of the bactericidal properties (RoA) was calculated using the following formula (Equation (1)):RoA = MBCMHB/MBC20% MHB(1)
(§8) RoA indicates the fold increases in the MBC when tested in undiluted medium […], i.e., with maximal interference of broth polyanionic substances, with respect to diluted medium […]. […] A more versatile measure to express the loss of activity was calculated as follows. […]
The source holds these as a separate data set.

Test [14] concerns E. faecalis cra4033 (EF 02).
Text: as §1
as §2, with “II. […]” for “II.”
as §6, §7, §8
The source holds these as a separate data set.

Test [15] relates to E. coli cra4038 (EC).
Text: as §1
as §2, with “II. […]” for “II.”
as §6, §7, §8

The subject of a further test is entire panel of strains. The experiment in a line: MBC, all strains of the panel. The note with it: undiluted MHB II, re-tested plating 10 μL. How it is done: For assessing the MBC, 10 μL of bacterial suspensions was taken from wells corresponding to MIC, 2× MIC, and 4× MIC and then plated on MHA plates. After one day of incubation at 37 °C, the agar plates were examined for bacterial growth. The MBC was determined as the lowest dilution causing absence of bacterial colonies growth on the plate.

Test [16] concerns E. faecalis cra4033 (EF 02).
Text: as §1, §2, §3, §4
This is another data set of the same source.

The subject of test [17] is P. aeruginosa cra4004 (PA 01).
Text: as §1, §2, §3, §4

The subject of test [18] is P. aeruginosa cra3840 (PA 02).
Text: as §1, §2, §3, §5

The test system of test [19] is P. aeruginosa cra4004 (PA 01).
Text: as §1, §2, §3, §5
The source holds these as a separate data set.

Usually MIC stands for the smallest concentration in the dilution series that meets the test's criterion for growth inhibition. A lower MIC goes with inhibition by little substance. A word on the MBC: it is the smallest concentration meeting the test's criterion for killing. Regarding `CC(C)C[C@H](NC(=O)CN)C(=O)N[C@@H](CC(C)C)C(=O)N[C@@H](CCCNC(=N)N)C(=O)N[C@@H](C)C(=O)N[C@@H](CO)C(=O)N[C@@H](CO)C(=O)N[C@@H](CCCCN)C(=O)N[C@@H](Cc1c[nH]c2ccccc12)C(=O)NCC(=O)N[C@@H](CCCNC(=N)N)C(=O)N[C@@H](CCCCN)C(=O)N[C@@H](Cc1ccc(O)cc1)C(=O)N[C@@H](Cc1ccc(O)cc1)C(=O)N[C@H](C(=O)N[C@@H](CC(=O)O)C(=O)N[C@@H](CC(C)C)C(=O)N[C@@H](C)C(=O)NCC(=O)N[C@@H](CS)C(=O)N[C@@H](C)C(=O)N[C@@H](CCCCN)C(=O)N[C@@H](C)C(=O)O)C(C)C` [Dadapin-1] (H-GLLRASSKWGRKYYVDLAGCAKA-OH), the MBIC was greater than 500 µg/mL in test [1] (cra4029 (SE 02, 24 h)); greater than 500 µg/mL in test [2] (cra4024 (EF 01, 24 h)); greater than 500 µg/mL in test [3]; 250 to 500 µg/mL in test [4]; 500 µg/mL in test [5]; 3.91 to 7.81 µg/mL in test [6]. Moreover, the MBIC in test [7] is 7.81 to 15.63 µg/mL; in the test on E. coli cra4038 (EC) [8] (cra4038 (EC, 24 h)) it was 15.63–31.25 (31.25) 2LR: 31.25 μg/mL. The “LR, Log10 reduction in bacterial metabolism for a given MBIC” value in test [2] (cra4024 (EF 01)) was determined as 3 LR; in test [3] (cra3840 (PA 02)), 3 LR; in the test with E. coli cra4038 (EC) [8], 2 LR. Also, the minimal inhibitory concentration (MIC) in test [9] was greater than 500 µg/mL; in test [10] it was greater than 500 µg/mL; in test [11], greater than 500 µg/mL; in test [12], 15.63 µg/mL (≈ 6.22 µM). In addition, the MBC in [13] was 15.63 µg/mL (≈ 6.22 µM); in [14] it was greater than 500 µg/mL; against E. coli cra4038 (EC) [15], 31.25 to 62.5 µg/mL; in the test with entire panel of strains, “exceeded 500 μg/mL”.

Take `CC(C)[C@H](NC(=O)[C@H](CCCCN)NC(=O)[C@H](Cc1ccccc1)NC(=O)[C@@H](NC(=O)[C@@H](NC(=O)[C@H](CCCCN)NC(=O)[C@@H](N)CCCCN)C(C)C)C(C)C)C(=O)N[C@@H](CCCCN)C(=O)N[C@@H](Cc1ccccc1)C(=O)N[C@@H](CCCCN)C(=O)O` [KSL] (H-KKVVFKVKFK-OH): the “LR, Log10 reduction in bacterial metabolism for a given MBIC” value in test [1] (cra4029 (SE 02)) was 2 LR; in test [16] (cra4033 (EF 02)), 2 LR; in [7] (cra4030 (SA 01)) it was 2 LR; in test [17], 3 LR; in the test with E. coli cra4038 (EC) [8] it was 3 LR. Also, the MBIC was determined as 3.91 µg/mL in test [3]; 250 µg/mL in test [16] (cra4033 (EF 02, 24 h)); 31.25 µg/mL in test [5]; 1.95 µg/mL in test [7]. The minimum inhibitory concentration (MIC) in test [18] and in [19] was 3.91 µg/mL (≈ 3.13 µM) throughout.
